# How the values were obtained:
# Conditions in all cases: 72 h
# Caco-2 [1] = experiment: relative viability EC50 (midpoint between 100% and the lowest measured viability); higher = less toxic
# Vero E6 [2] = experiment: as above
# U2OS [3] = experiment: as above
# HepG2 [4] = experiment: as above
# Calu-3 [5] = experiment: as above
# Caco-2 [6] = experiment: drug sensitivity score (DSS) for viability; higher = more toxic; extreme values may be limits of the assay
# Vero E6 [7] = experiment: as above
# U2OS [8] = experiment: as above
# HepG2 [9] = experiment: as above
# Calu-3 [10] = experiment: as above
# Caco-2 [11] = experiment: cell viability relative to DMSO; higher = less toxic
# Vero E6 [12] = experiment: as above
# U2OS [13] = experiment: as above
# HepG2 [14] = experiment: as above
# Calu-3 [15] = experiment: as above
Structure (SMILES),relative viability EC50 (Caco-2 [1]) [µM],relative viability EC50 (Vero E6 [2]) [µM],relative viability EC50 (U2OS [3]) [µM],relative viability EC50 (HepG2 [4]) [µM],relative viability EC50 (Calu-3 [5]) [µM],drug sensitivity score (Caco-2 [6]),drug sensitivity score (Vero E6 [7]),drug sensitivity score (U2OS [8]),drug sensitivity score (HepG2 [9]),drug sensitivity score (Calu-3 [10]),cell viability (Caco-2 [11]; 1 nM) [%],cell viability (Caco-2 [11]; 10 nM) [%],cell viability (Caco-2 [11]; 100 nM) [%],cell viability (Caco-2 [11]; 1000 nM) [%],cell viability (Caco-2 [11]; 10000 nM) [%],cell viability (Vero E6 [12]; 1 nM) [%],cell viability (Vero E6 [12]; 10 nM) [%],cell viability (Vero E6 [12]; 100 nM) [%],cell viability (Vero E6 [12]; 1000 nM) [%],cell viability (Vero E6 [12]; 10000 nM) [%],cell viability (U2OS [13]; 1 nM) [%],cell viability (U2OS [13]; 10 nM) [%],cell viability (U2OS [13]; 100 nM) [%],cell viability (U2OS [13]; 1000 nM) [%],cell viability (U2OS [13]; 10000 nM) [%],cell viability (HepG2 [14]; 1 nM) [%],cell viability (HepG2 [14]; 10 nM) [%],cell viability (HepG2 [14]; 100 nM) [%],cell viability (HepG2 [14]; 1000 nM) [%],cell viability (HepG2 [14]; 10000 nM) [%],cell viability (Calu-3 [15]; 1 nM) [%],cell viability (Calu-3 [15]; 10 nM) [%],cell viability (Calu-3 [15]; 100 nM) [%],cell viability (Calu-3 [15]; 1000 nM) [%],cell viability (Calu-3 [15]; 10000 nM) [%]
COc1ccc(NS(=O)(=O)c2ccc(/N=N/c3ccc(O)c(C(=O)O)c3)cc2)nn1 [salazodine],> 10,> 10,> 10,> 10,> 10,0,0,0,0,0,111,89.4,97.4,95.4,93.7,105,108,95.7,101,101,101,98,98.6,96.2,102,99.6,97.7,92.5,95.1,96.9,98,108,102,116,111
Nc1ncnc2c1ncn2[C@@H]1O[C@H](C[C@@H](N)CC[C@H](N)C(=O)O)[C@@H](O)[C@H]1O [sinefungin],> 10,> 10,> 10,> 10,> 10,0,0,0,0,0,86.7,95.5,91.4,108,106,112,94.3,102,104,99.5,96.6,98.1,97.7,101,96.2,115,96.2,113,89.9,97.1,104,104,100,94.8,93.5
O=C(O)[C@H](O)[C@@H](O)[C@H](O)[C@H](O)CO [sodium-gluconate],> 10,> 10,> 10,> 10,> 10,0,0,0,0,0,104,101,104,113,92.2,96.9,107,102,93.5,105,96.9,97,98.2,99.8,103,79.7,108,94.3,92.7,91,106,96.6,108,109,105
CC(C(=O)O)c1ccc(C(=O)c2cccs2)cc1 (stereo not given) [suprofen],> 10,> 10,> 10,> 10,> 10,0,0,0,1.1,1.6,105,98,101,98,90.8,97.7,97.9,95.4,102,98.7,101,93.5,97.4,97,103,102,93.2,92.9,86.8,85.3,97.9,103,89,86.6,89.8
O=C(CO)[C@@H](O)[C@@H](O)[C@H](O)CO [tagatose],> 10,> 10,> 10,> 10,> 10,0,0,0,0,0,98.5,94.4,103,106,99.3,93.7,94.5,92.1,85.3,110,89.1,95.3,92.7,102,107,101,91.6,97.6,94.9,106,98.4,99.6,99.7,97,102
C=CCNC1=C2C[C@@H](C)C[C@H](OC)[C@H](O)[C@@H](C)/C=C(\C)[C@H](OC(N)=O)[C@@H](OC)/C=C\C=C(/C)C(=O)NC(=CC1=O)C2=O [tanespimycin],1.18,0.768,0.164,0.0174,0.161,7.7,9.8,21,33.3,13.5,93.6,98.8,101,71.8,29.2,108,100,104,51.4,26.5,101,102,73.2,4.8,1.8,113,80.2,1.9,1.3,2.2,108,105,83.3,40.2,38.2
CNC(=N)NCCC[C@H](N)C(=O)O [targinine],> 10,> 10,> 10,> 10,> 10,0,0.5,0,0,0,98.1,98,101,96.8,96,96.3,98.1,95.9,99.6,81.3,105,96.9,101,101,102,94.1,103,96.9,98.6,96.3,96.7,96.9,96.8,111,99.2
CCOC(=O)Nc1ccc2c(c1)N(C(=O)CN(C)C)c1ccccc1CC2 [tiracizine],> 10,> 10,> 10,> 10,> 10,0,0,0,0,0,106,105,105,98.9,100,99.8,99.2,97.3,97.9,97.8,99.9,104,96.5,101,99.7,106,95.4,111,87.6,102,107,103,87,85,106
CCn1c(=O)n(C2=C(CO)CN(CC3CCCCCCC3)CC2)c2ccccc21 [trap-101],> 10,> 10,> 10,> 10,> 10,0.3,0,0,0,0,102,89.9,96.7,93.6,83.5,98,96.8,95.6,96.3,98.9,98.2,101,97.4,98.8,93.8,97.8,96.7,91.5,96.5,98,99.6,106,94.5,104,92.6
Oc1cc(Cl)ccc1Oc1ccc(Cl)cc1Cl [triclosan],> 10,> 10,> 10,> 10,> 10,0,0,0,0,0,105,102,94.5,95.6,126,97,104,106,112,95.3,98.7,96.5,98.3,97.9,99.3,105,99.3,102,93.8,113,97.7,92.3,106,101,107
COc1cc(C(=O)N2CCOCC2)cc(OC)c1OC [trimetozine],> 10,> 10,> 10,> 10,> 10,0,0,0,0,0,95.4,105,86.4,108,96.6,106,107,108,94.8,99.9,95.8,98.3,96.8,99.9,96.6,93.8,92.9,102,95.3,98.8,98.9,94.8,101,92.1,102
CN(C)CCN1C(=O)c2cccc3cc(NC(N)=O)cc(c23)C1=O [unbs-5162],> 10,> 10,> 10,1.61,> 10,0,0,0,5.3,1.5,96.5,99.3,93.5,104,96,108,101,107,95.1,90.8,104,99.7,96.4,101,88,100,101,93.7,86.5,42.2,100,105,95.9,88.6,78.4
CC(=O)C1=C(O)C=C2Oc3c(C(C)=O)c(O)c(C)c(O)c3C2(C)C1=O (stereo not drawn) [usniacin-(+)],> 10,> 10,> 10,> 10,> 10,0,0,0,0,0,104,101,91.1,95.6,108,101,95.4,100,98.9,101,98.9,75.3,95.8,83.5,95.5,111,97.1,102,110,94,107,99.4,95.2,113,96.4
COc1cc(C=O)ccc1O [vanillin],> 10,> 10,> 10,> 10,> 10,0,0,0,0,0,92.8,90,96,104,96.6,92,91.5,89.7,89,105,96.1,104,95.1,104,99.1,99.9,91.9,102,115,97.4,97.5,107,109,99.8,105
